# Results: US20110129917A1, “CELL ISOLATION METHOD” (priority 2007, published 2011)
# Tested on: microorganisms in soil
# Assay: effect of cell enlargers upon microorganisms in rice paddy soil, observed under a fluorescent microscope after CFDA-AM staining
# Assay type: cell-based
# Conditions: three cell enlargers added together: nalidixic acid 80 μg/g of soil, pipemidic acid 40 μg/g, piromidic acid 40 μg/g; anaerobic, 30° C., 24 hours; comparison without enlargers showed only round or oval cells
# Experimental: As a laboratory model of rice paddy soil where denitrification is active, a 10 mL vial bottle was filled with slightly less than 10 mL of soil (rice paddy soil from Tanashi Farm of the University of Tokyo), a selective substrate of denitrificans (sodium succinate, approximately 5 g/L) and sodium nitrate (approximately 5 g/L) and the gas phase was completely substituted with argon-acetylene. Culture was then carried out anaerobically at 30° C. […] A fluorescent dye CFDA-AM (final concentration 50 μM) was added to the cultured product and the product was observed under a fluorescent microscope (excited in blue, irradiated with blue light) (FIG. 3(b)). In combination, as a comparative example, the fluorescent dye was added and observation was carried out under a microscope with no cell enlargers added (FIG. 3(a)).
row,SMILES,effect of cell enlargers upon microorganisms in soil (cell shape and size under the microscope)
1,CCn1cc(C(=O)O)c(=O)c2cnc(N3CCNCC3)nc21 [pipemidic acid],elongated and larger cells were also observable
2,CCn1cc(C(=O)O)c(=O)c2cnc(N3CCCC3)nc21 [piromidic acid],elongated and larger cells were also observable
